{"source": "patent US20040180850A1", "about": "“Methods and compositions for treatment of gastric diseases” (priority 2001, published 2004)", "key": {"Helicobacter pylori [1]": {"test_system": "Helicobacter pylori", "assay": "TLC overlay assay of neoglycolipids (reductively aminated oligosaccharides)", "format": "binding", "text": "The Helicobacter pylori binding oligosaccharide sequence has been reported in the structure GlcNAcβ3Galβ4GlcNAcβ6GalNAc from human gastric mucins. […] Therefore the preferred oligosaccharide sequences include O-glycans and analogues of O-glycan sequences such as GlcNAcβ3Galβ4GlcNAcβ6GlcNAc/GalNAc/Gal, GleNAcβ3Galβ4GlcNAcβ6GlcNAc/GalNAc/GalαSer/Thr, GlcNAcβ3Galβ4GlcNAcβ6(Gal/GlcNAcβ3)GlcNAc/GalNAc/GalαSer/Thr and glycopeptides and glycopeptide analogs comprising the O-glycan sequences. Even sequences lacking the non-reducing end GlcNAc may have some activity. Based on this all the other Helicobacter pylori binding oligosaccharide sequences (OS) and especially the trisaccharide epitopes are also especially preferred when linked from the reducing end to form structures OSβ6Gal(NAc)0-1 or OSβ6Glc(NAc)0-1 or OSβ6Gal(NAc)0-1Ser/Thr or OSβ6Glc(NAc)0-1αSer/Thr. The Ser or Thr-compounds or analogue thereof or the reducing oligosaccharides are also preferred when linked to a polyvalent carrier. The reducing oligosaccharides can be reductively linked to the polyvalent carrier.\nTLC bacterial overlay assay. Thin-layer chromatography was performed on glass- or aluminum-backed silica gel 60 HPTLC plates (Merck, Darmstadt, Germany) using chloroform/methanol/water 60:35:8 (by volume) as solvent system. Chemical detection was accomplished by anisaldehyde stainig (Waldi, 1962). The bacterial overlay assay was performed as described previously (Hansson et al., 1985). Glycosphingolipids (1-4 μg/lane, or as indicated in the figure legend) were chromatographed on aluminum-backed silica gel plates and thereafter treated with 0.3-0.5% polyisobutylmethaerylate in diethylether/n-hexane 1:3 (by volume) for 1 min, dried and subsequently soaked in PBS containing 2% bovine serum albumin and 0.1% Tween 20 for 2 h A suspension of radio-labeled bacteria (diluted in PBS to 1×10^8 CFU/ml and 1-5×10^6 cpm/ml) was sprinkled over the chromatograms and incubated for 2 h followed by repeated rinsings with PBS. After drying the chromatograms were exposed to XAR-5 X-ray films (Eastman Kodak Co., Rochester, N.Y., USA) for 12-100 h.\n0.6 mg of pentasaccharide was obtained after HPLC-purcation steps, the saccharide was more than 98% pure when analyzed by mass spectrometry. Part of the pentasaccharide and maltoheptaose (Sigma, Saint Louis, USA) were reductively aminated with 4-hexadecylamnie (abbreviation HDA, from Aldrich, Stockholm, Sweden) by cyanoborohydride (Halina Miller-Podraza, to be published later). […]"}, "[2]": {"test_system": "Helicobacter pylori (strain 032)", "assay": "TLC bacterial overlay assay: binding of radiolabeled Helicobacter pylori to glycosphingolipids separated on thin-layer chromatograms", "conditions": "for Helicobacter pylori binding activity of glycosphingolipid (in words): TLC overlay with 35S-labeled bacteria, autoradiography; for binding frequency for Helicobacter pylori: strain 032, total number of plates about 100"}, "Helicobacter pylori [3]": {"test_system": "Helicobacter pylori", "assay": "Semi-quantitative TLC overlay test with dilution series of glycosphingolipids", "format": "binding", "conditions": "evaluated visually after overlay with labeled bacteria and autoradiography"}}, "note": "“Also recorded” adds a separate entry of the source.", "data": [{"compound": "CCCCCCCCCCCCCCCCc1ccc(NC[C@H](O)[C@@H](O)[C@H](O[C@@H]2O[C@H](CO)[C@H](O)[C@H](O[C@@H]3O[C@H](CO)[C@@H](O[C@@H]4O[C@H](CO)[C@H](O)[C@H](O[C@@H]5O[C@H](CO)[C@@H](O)[C@H](O)[C@H]5NC(C)=O)[C@H]4O)[C@H](O)[C@H]3NC(C)=O)[C@H]2O)[C@H](O)CO)cc1", "note": "[GlcNAcβ3Galβ4GlcNAcβ3Galβ4Glc(red)-HDA]", "values": [{"measurement": "binding activity of neoglycolipid with regard to Helicobacter pylori (in words)", "setting": "Helicobacter pylori [1]", "result": "observable binding activity"}]}, {"compound": "CC(=O)N[C@H]1[C@H](OC[C@H]2OC(O)[C@H](O)[C@@H](O)[C@H]2O)O[C@H](CO)[C@@H](O[C@@H]2O[C@H](CO)[C@H](O)[C@H](O[C@@H]3O[C@H](CO)[C@@H](O)[C@H](O)[C@H]3NC(C)=O)[C@H]2O)[C@@H]1O", "note": "(some centres unmarked) [GlcNAcβ3Galβ4GlcNAcβ6Gal]", "values": [{"measurement": "binding activity of neoglycolipid with regard to Helicobacter pylori (in words)", "setting": "Helicobacter pylori [1]", "result": "some binding activity"}]}, {"compound": "CC(=O)N[C@H]1[C@H](OC[C@H]2OC(O)[C@H](NC(C)=O)[C@@H](O)[C@@H]2O)O[C@H](CO)[C@@H](O[C@@H]2O[C@H](CO)[C@H](O)[C@H](O[C@@H]3O[C@H](CO)[C@@H](O)[C@H](O)[C@H]3NC(C)=O)[C@H]2O)[C@@H]1O", "note": "(some centres unmarked) [GlcNAcβ3Galβ4GlcNAcβ6GlcNAc]", "values": [{"measurement": "binding activity of neoglycolipid with regard to Helicobacter pylori (in words)", "setting": "Helicobacter pylori [1]", "result": "high affinity binding"}]}, {"compound": "Fucα2Galβ4GlcNAcβ3Galβ4Glcβ1Cer [No. 18]", "values": [{"measurement": "Helicobacter pylori binding activity of glycosphingolipid (in words)", "setting": "[2]", "result": "absence of binding"}]}, {"compound": "GalNAcα3(Fucα2)Galβ4GlcNAcβ3Galβ4Glcβ1Cer [No. 22]", "values": [{"measurement": "Helicobacter pylori binding activity of glycosphingolipid (in words)", "setting": "[2]", "result": "non-binding"}]}, {"compound": "GalNAcβ3Galα3Galβ4GlcNAcβ3Galβ4Glcβ1Cer [No. 25]", "values": [{"measurement": "Helicobacter pylori binding activity of glycosphingolipid (in words)", "setting": "[2]", "result": "non-binding"}]}, {"compound": "GalNAcβ3Galβ4GlcNAcβ3Galβ4Glcβ1Cer [No. 11]", "values": [{"measurement": "Helicobacter pylori binding activity of glycosphingolipid (in words)", "setting": "[2]", "result": "binding was also found"}]}, {"compound": "Galα3(Fucα2)Galβ4GlcNAcβ3Galβ4Glcβ1Cer [No. 23]", "values": [{"measurement": "Helicobacter pylori binding activity of glycosphingolipid (in words)", "setting": "[2]", "result": "non-binding"}]}, {"compound": "Galα3Galβ4GlcNAcβ3Galβ4Glcβ1Cer [No. 13]", "values": [{"measurement": "Helicobacter pylori binding activity of glycosphingolipid (in words)", "setting": "[2]", "result": "binding-active"}]}, {"compound": "Galα4Galβ4GlcNAcβ3Galβ4Glcβ1Cer [No. 15]", "values": [{"measurement": "Helicobacter pylori binding activity of glycosphingolipid (in words)", "setting": "[2]", "result": "absence of binding"}]}, {"compound": "Galβ4GlcNAcβ3Galβ4GlcNAcβ3Galβ4Glcβ1Cer [No. 21]", "values": [{"measurement": "amount of glycolipid giving a positive response on TLC plates (binding of Helicobacter pylori)", "setting": "Helicobacter pylori [3]", "result": "~0.2", "unit": "nmol/spot"}, {"measurement": "Helicobacter pylori binding activity of glycosphingolipid (in words)", "setting": "[2]", "result": "displayed binding activity"}, {"measurement": "binding frequency for Helicobacter pylori", "setting": "[2]", "result": "~90", "unit": "%"}]}, {"compound": "Galβ4GlcNAcβ3Galβ4Glcβ1Cer [No. 5]", "values": [{"measurement": "amount of glycolipid giving a positive response on TLC plates (binding of Helicobacter pylori)", "setting": "Helicobacter pylori [3]", "result": "~0.3", "unit": "nmol/spot"}, {"measurement": "Helicobacter pylori binding activity of glycosphingolipid (in words)", "setting": "[2]", "result": "displayed binding activity"}]}, {"compound": "Galβ4Glcβ1Cer [diglycosylceramide]", "values": [{"measurement": "Helicobacter pylori binding activity of glycosphingolipid (in words)", "setting": "[2]", "result": "displayed binding activity"}]}, {"compound": "GlcNAcβ3Galβ4GlcNAcβ3Galβ4Glcβ1Cer [No. 10]", "values": [{"measurement": "amount of glycolipid giving a positive response on TLC plates (binding of Helicobacter pylori)", "setting": "Helicobacter pylori [3]", "result": 0.039, "unit": "nmol/spot"}, {"measurement": "Helicobacter pylori binding activity of glycosphingolipid (in words)", "setting": "[2]; listed as pentaglycosylceramide", "result": "strong activity; also recorded: displayed binding activity"}, {"measurement": "binding frequency for Helicobacter pylori", "setting": "[2]", "result": "~90", "unit": "%"}]}, {"compound": "GlcNAcβ3Galβ4Glcβ1Cer [No. 1]", "values": [{"measurement": "Helicobacter pylori binding activity of glycosphingolipid (in words)", "setting": "[2]", "result": "inactive"}]}, {"compound": "NeuAcα3GalNAcβ3Galβ4GlcNAcβ3Galβ4Glcβ1Cer [No. 24]", "values": [{"measurement": "Helicobacter pylori binding activity of glycosphingolipid (in words)", "setting": "[2]", "result": "non-binding"}]}, {"compound": "NeuGcα3Galβ4GlcNAcβ3Galβ4GlcNAcβ3Galβ4Glcβ1Cer [No. 27]", "values": [{"measurement": "binding by Helicobacter pylori isolates", "setting": "[2]; about 60 isolates tested", "result": "bound by most Helicobacter pylori isolates"}]}, {"compound": "maltoheptaose(red)-HDA [maltoheptaose/red)-HDA, reference compound]", "values": [{"measurement": "binding activity of neoglycolipid with regard to Helicobacter pylori (in words)", "setting": "Helicobacter pylori [1]", "result": "totally inactive"}]}]}
